Values after ≈ are worked out from the molar mass of the structure shown. Counter-ions that a name gives are not always drawn. Like-named read-outs stand apart in the source and are kept apart here.
Key:
mdx mice [1] = test: Dystrophin expression after intramuscular injection into TA muscles; assay type: in vivo; settings: for dystrophin staining in TA muscles: mdx mice, two weeks after intramuscular injection, compared to DMSO alone; for number of dystrophin positive fibers: TA muscle of mdx mice, intramuscular injection, compound 5 compared with prodrugs
Source text: FIG. 8 provides plots showing dystrophin expression after intramuscular injection. Panel (A) provides plots showing dystrophin staining in TA muscles of mdx mice injected with RTC13 or its derivatives and analyzed two weeks after delivery of compounds and compared to muscles treated with DMSO alone. Dystrophin expression was evident in muscles that received the compounds but not in sham-injected muscles. […] (N=4 muscles per compound; scale bar: 50 μ ? ) Panel (B) provides plots showing the number of dystrophin positive fibers determined across the length of the muscle. […] Shown here is the average number of dystrophin positive fibers per cross-sectional area containing the highest number of positives. (N=4 muscles per compound; *: p=0.0008; **: p≤0.04). RTC13: compound 5; […]: compound 16; […]: compound 20; […]: compound 12; and […]: compound 8.

Aqueous solubility = assay type: physicochemical
Description: The solubility of selected compounds was tested and compared to that of comparative compound 5. To 5 mg of each test compound, water was slowly added initially in 0.5 mL and then 0.1 mL increments with vortexing for approximately 1 minute in between each aliquot of water addition and visually inspected for homogeneity. […] Table 1 provides the aqueous solubility of various prodrugs.

mdx mice [2] = test: Forelimb grip test after oral administration; assay type: in vivo; settings: oral administration for up to one month
Source text: (§1) FIG. 24 provides plots showing functional improvement in mdx mice after oral administration of compound 8 for up to one month. Panel (A) provides plots showing the forelimb grip test that was used to assess the effects of systemic administration of RTCs on muscle strength. […] (N=5 mice per treatment group; *p<0.05; **p<0.005). Panel (B) provides plots showing the results obtained using the wire test. […] (N=6 mice per treatment group; *p<0.05; **p=0.005). 13Y: compound 8.

mdx mice [3] = test: Wire test after oral administration; assay type: in vivo; settings: oral administration for up to one month
Source text: as §1

Serum chemistry analyses = assay type: in vivo; settings: mdx mice; for serum levels of albumin, ALP, total bilirubin, LDH, cholesterol, total protein, and glucose: 30 or 60 mg/kg three times per day up to one month
Description: FIG. 26 provides the results of the serum chemistry analyses of mdx mice treated with vehicle, PTC 124 at a dose of 30 mg/kg, PTC 124 at a dose of 60 mg/kg, compound 8 at a dose of 30 mg/kg or compound 8 at a dose of 60 mg/kg three times per day at intervals of 4 hrs for up to one month. […] Values are expressed as mean plus or minus Standard Deviation (±SD). The symbol * indicates statistical significance compared to mdx treated with vehicle only. The symbol † indicates statistical significance compared to wild type (C57BL/10) untreated mice. (N=4 mice per treatment group; p≤0.05). 13Y: compound 8.

[4] = system: normal termination codons; settings: cited from earlier work
[5] = phase-I clinical study in cystic fibrosis; cited from earlier work
[6] = target: FLuc (firefly luciferase) reporter (Photinus pyralis, UniProt P08659); settings: cited from earlier work
[7] = Duchenne boys; cited from earlier work
[8] = Pharmacokinetics studies after oral administration of compound 8 (tissue levels); assay type: in vivo; settings: C57BL/10 mice; for level in heart: oral compound 8 at 10 mg/kg and 30 mg/kg; for level in biceps / level in gastrocnemius: oral compound 8 at 10 mg/kg
Description: (§2) FIG. 19 provides plots showing the results of pharmacokinetics studies in C57BL/10 mice after oral administration of compound 8 in gastrocnemius. The compound was administered at the indicated dosages in 6-8 weeks old C57BL/10 mice and tissues were analyzed in gastrocnemius 15 min, 30 min, 1 hr, 4 hrs, 6 hrs, and 24 hrs after gavage. Compound 8 and RTC13 (compound 5) were not detected in muscles isolated from mice that received compound 8 at a dose of 10 mg/kg. RTC13: compound 5; and 13Y: compound 8.
as §2, with “FIG. 20” for “FIG. 19”, “in biceps.” for “in gastrocnemius.”, “in biceps” for “in gastrocnemius”, “6 hrs” for “6 hrs,”
as §2, with “FIG. 21 provides plots” for “FIG. 19 provides plots”, “8 in heart. The compound” for “8 in gastrocnemius. The compound”, “analyzed in heart 15 min,” for “analyzed in gastrocnemius 15 min,”, “of 10 mg/kg and 30 mg/kg. RTC13:” for “of 10 mg/kg. RTC13:”

mdx mice [9] = test: Dystrophin expression in muscles after oral administration for one month; assay type: in vivo; settings: three times per day for one month, 30 mg/kg or 60 mg/kg
Description: FIG. 23 provides images of microscopic images obtained from muscles isolated from mdx mice after oral administration of compound 8. Compounds were administered in 6-8 weeks old mdx mice three times per day for one month at the indicated dosages. Dystrophin expression was evident in muscles that received the compounds but not in sham-injected muscles. […] 13Y: compound 8.

mdx mice [10] = test: In vitro force measurement of diaphragm muscles (eccentric contractions); assay type: in vivo
Description: FIG. 25 provides plots showing in vitro force measurement of diaphragm muscles of mdx mice treated with vehicle, compound 8 at a dose of 30 mg/kg or compound 8 at a dose of 60 mg/kg three times per day at intervals of 4 hrs for up to one month. Muscles isolated from untreated and treated mice muscles were subjected to a series of five eccentric contractions with a 5-min rest between contractions. Results were compared to those of wild type (C57BL/10) mice. Panel (A) provides plots showing the decrease in force (in percentage) obtaining following eccentric contractions over the course of the analyses. […] Plot (B) show the results of the decrement in force (in percentage) obtained in mice treated with compound 8. […] (N=4 mice per treatment group, *: p≤0.05; **: p≤0.03). 13Y: compound 8.

[11] = system: lymphoblastoid cell lines derived from A-T patients; settings: each of the three types of nonsense mutations (TGA>TAA>TAG); cited from earlier work
mdx cells = settings: cells in culture; cited from earlier work
mdx mice [12] = settings: cited from earlier work
[13] = thermodynamic from solid, water, ambient pH, room temperature, read-out: Solubility in (mg/mL) water at ambient pH, at room temperature

Chain of FLuc (firefly luciferase) reporter (P08659 whole entry): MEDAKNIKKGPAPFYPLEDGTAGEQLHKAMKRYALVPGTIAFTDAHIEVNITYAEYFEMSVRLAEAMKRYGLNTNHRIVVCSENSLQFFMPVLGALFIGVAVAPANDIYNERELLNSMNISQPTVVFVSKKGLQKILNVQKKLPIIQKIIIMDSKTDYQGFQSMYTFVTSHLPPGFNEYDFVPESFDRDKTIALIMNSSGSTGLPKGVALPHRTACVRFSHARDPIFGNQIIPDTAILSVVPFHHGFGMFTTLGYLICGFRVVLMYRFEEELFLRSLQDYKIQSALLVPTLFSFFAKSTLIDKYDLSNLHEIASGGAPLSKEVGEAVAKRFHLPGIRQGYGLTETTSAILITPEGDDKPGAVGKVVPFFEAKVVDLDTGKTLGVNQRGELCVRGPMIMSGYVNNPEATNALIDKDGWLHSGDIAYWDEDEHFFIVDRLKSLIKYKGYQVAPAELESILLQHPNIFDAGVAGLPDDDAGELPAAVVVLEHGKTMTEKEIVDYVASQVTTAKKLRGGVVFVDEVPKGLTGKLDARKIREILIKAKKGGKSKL

gentamicin
dystrophin staining in TA muscles (mdx mice [1]): Weak expression

O=C(CN1CCOCC1)/N=C1\NC(=O)/C(=C/c2ccc(-c3ccccc3[N+](=O)[O-])o2)S1 [Compound 20, 2-(morpholin-4-yl)-7V-[(2£′,5Z)-5-{[5-(2-nitrophenyl)furan-2-yl]methylidene}-4-oxo-1,3-thiazolidin-2-ylidene] acetamide]
solubility (Aqueous solubility; [13]): 0.1 mg/mL (≈ 226 µM) | number of dystrophin positive fibers (mdx mice [1]): compound 5 showed a significantly higher number of positive fibers

O=C(O)c1cccc(-c2noc(-c3ccccc3F)n2)c1 [PTC124]
muscle strength, forelimb grip test (mdx mice [2]): No significant improvements | average hanging time, wire test (mdx mice [3]): No significant improvements | serum levels of albumin, ALP, total bilirubin, LDH, cholesterol, total protein, and glucose (Serum chemistry analyses): within normal range | read-through of normal termination (stop) codons [4]: does not induce ribosomal readthrough of normal stop codons | readthrough activity compared to aminoglycosides [5]: more efficient readthrough activity than aminoglycosides | tolerability [5]: generally well tolerated | effect on reporter [6]: direct effect on the FLuc (firefly luciferase) reporter | efficacy in clinical trials [7]: indeterminate efficacy

O=C1N/C(=N\C(=O)C2CCNCC2)S/C1=C\c1ccc(-c2ccccc2[N+](=O)[O-])o1 [Compound 16, N-[(2ii,5Z)-5-{[5-(2-nitrophenyl)furan-2-yl]methylidene}-4-oxo-1,3-thiazolidin-2-ylidene]piperidine-4-carboxamide hydrochloride]
solubility (Aqueous solubility; [13]): 0.18 mg/mL | number of dystrophin positive fibers (mdx mice [1]): compound 5 showed a significantly higher number of positive fibers

CN1CCN(CC(=O)/N=C2\NC(=O)/C(=C/c3ccc(-c4ccccc4[N+](=O)[O-])o3)S2)CC1 [Compound 8, 2-(4-methylpiperazin-1-yl)-7V-[(2£′,5Z)-5-{[5-(2-nitrophenyl)furan-2-yl]methylidene}-4-oxo-1,3-thiazolidin-2-ylidene]acetamide dihydrochloride]
solubility (Aqueous solubility; [13]): 3.3 mg/mL | number of dystrophin positive fibers (mdx mice [1]): No significant differences | level in heart [8]: not detected | level in biceps [8]: not detected | level in gastrocnemius [8]: not detected | dystrophin expression in muscles (mdx mice [9]): higher levels of dystrophin expression than muscles obtained from mdx mice treated with PTC124 | muscle strength, forelimb grip test (mdx mice [2]): significant force recovery | average hanging time, wire test (mdx mice [3]): more significant than that of sham-injected mice or mice treated with PTC 124 | decrease in force (in percentage) following eccentric contractions (mdx mice [10]; 30 mg/kg and 60 mg/kg three times per day up to one month): improvement if loss of force was detected | decrement in force (in percentage) (mdx mice [10]; 60 mg/kg three times per day, compared to vehicle only): significantly lower | serum levels of albumin, ALP, total bilirubin, LDH, cholesterol, total protein, and glucose (Serum chemistry analyses): within normal range | alanine aminotransferase (ALT) (Serum chemistry analyses; compared to vehicle alone): decrease | blood urea nitrogen (BUN) (Serum chemistry analyses; compared to vehicle alone): decrease | creatinine (Serum chemistry analyses; compared to vehicle alone): decrease

N=C1NC(=O)/C(=C/c2ccc(-c3ccccc3[N+](=O)[O-])o2)S1 [Compound 5, (5Z)-2-imino-5-([5-(2-nitrophenyl)furan-2-yl]methylidene)-1,3-thiazolidin-4-one]
solubility (Aqueous solubility): low solubility | dissolution in water (Aqueous solubility; diluted to IL with water, vigorously stirred for up to 12 hr): did not appear to dissolve fully | solubility (Aqueous solubility; [13]): < 0.005 mg/mL | number of dystrophin positive fibers (mdx mice [1]): significantly higher number of positive fibers than muscles that received compounds 16 and 20 | level in heart [8]: not detected | level in biceps [8]: not detected | level in gastrocnemius [8]: not detected | activity in A-T lymphoblastoid cell lines [11]: biological activity | full-length dystrophin in mdx cells (mdx cells): restored full-length dystrophin | read-through of normal termination (stop) codons [4]: not read-through normal termination codons | Dystrophin protein detection in muscle groups (mdx mice [12]; including diaphragm and heart): detected in all muscle groups analyzed | creatine kinase (CK) levels (mdx mice [12]; marker of muscle degeneration): decrease | Dystrophin compared to PTC 124 (mdx mice [12]; mdx mice): significantly higher | muscle strength (mdx mice [12]; over mice that did not receive the RTCs): significant increase in muscle strength | dystrophin expression in skeletal muscles (mdx mice [12]; systemic administration, mdx mice): restores functional levels of dystrophin expression

CC(C)(C)c1ccc(O)c(N=Cc2cccc([N+](=O)[O-])c2)c1 [RTC14]
dystrophin staining in TA muscles (mdx mice [1]): Weak expression

CN(C)CC(=O)/N=C1\NC(=O)/C(=C/c2ccc(-c3ccccc3[N+](=O)[O-])o2)S1 [Compound 12, (£)-N^2,N^2-dimethyl-7V-[(5Z)-5-{[5-(2-nitrophenyl)furan-2-yl]methylidene}-4-oxo-1,3-thiazolidin-2-ylidene]glycinamide hydrochloride]
solubility (Aqueous solubility; [13]): 10 mg/mL | number of dystrophin positive fibers (mdx mice [1]): No significant differences

— patent publication US10287283B2, “Read-through compound prodrugs suppressing premature nonsense mutations” (The Regents of the University of California, priority 2014, dated 2019)
